Measured values published in patent publication US6794396B2, “Substituted pyridines useful for inhibiting cholesteryl ester transfer protein activity” (Pharmacia Corporation, priority 1998, dated 2004).

Experiments:
CETP [1] = biological target: T1, CETP (Homo sapiens, UniProt P11597); experiment: CETP activity in vitro: transfer of [3H]CE from HDL donor to LDL acceptor particles; format: biochemical; conditions: Table 5, compounds of formula T-5; read-out: IC50
T1 construct: made in house; host or cells: CHO cells (serum-free conditioned medium)
T1 sequence (P11597 18-493): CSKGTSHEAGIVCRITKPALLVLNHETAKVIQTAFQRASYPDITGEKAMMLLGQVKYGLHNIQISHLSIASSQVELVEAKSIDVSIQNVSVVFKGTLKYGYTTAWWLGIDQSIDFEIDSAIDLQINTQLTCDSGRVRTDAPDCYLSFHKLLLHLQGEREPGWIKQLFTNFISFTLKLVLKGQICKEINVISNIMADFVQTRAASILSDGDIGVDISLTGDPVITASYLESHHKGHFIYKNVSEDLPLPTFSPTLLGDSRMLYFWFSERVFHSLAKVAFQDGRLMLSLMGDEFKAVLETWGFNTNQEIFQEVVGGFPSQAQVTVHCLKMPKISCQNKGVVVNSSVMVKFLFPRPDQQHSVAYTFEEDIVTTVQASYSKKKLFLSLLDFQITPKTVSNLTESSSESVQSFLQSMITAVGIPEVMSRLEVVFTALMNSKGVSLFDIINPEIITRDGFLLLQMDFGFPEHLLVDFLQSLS
How it was run: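 CETP from conditioned medium of CETP-transfected CHO cells incubated with [3H]CE-labelled HDL donor and LDL acceptor, pH 7.4 Tris buffer with NaCl, EDTA and 1% BSA, 2 h at 37 °C. LDL precipitated with dextran sulfate/MgCl2, filtered, and transferred radioactivity counted; IC50 reported.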

CETP [2] = experiment: Chronic inhibition of CETP activity in vivo: Alzet pump infusion, serum LDL/HDL cholesterol profiles by FPLC; set-up: species or system golden Syrian hamster
Excerpt: Chronic inhibition of CETP can be achieved by administration of Dimethyl 5,5′-dithiobis[2-difluoromethyl)-4-(2-methylpropyl)-6-(trifluoromethyl)-3-pyridinecarboxylate] (Compound 181) to hamsters using Alzet pump delivery of Compound 181 into the jugular veins of hamsters. Inhibition of CETP should lead to an increase in HDL cholesterol with a concomitant decrease in LDL cholesterol. This can be determined by filtering serum obtained at different time intervals after initiation of inhibitor infusion and quantitating the amount of cholesterol in the LDL and HDL peaks, respectively. In addition the activity of CETP in the serum can be assessed in an ex vivo CETP activity assay.
Male golden Syrian hamsters were maintained on a diet of normal rodent chow enriched with 0.24% cholesterol for at least 2 weeks prior to study. On Day 1, the hamsters were anesthetized with pentobarbital. An indwelling catheter was inserted into the jugular vein and exteriorized onto the back of the neck. The hamsters received […] of Compound 181 (38.5 mg/kg) in a 2% ethanol:98% PEG400 vehicle, or the 2% ethanol:98% PEG400 vehicle alone. An Alzet pump was then attached to the jugular catheter which delivered a steady infusion of 24 μl/day for a dose of 1.3 mg/day(9.2 mg/kg/day). The hamsters received the vehicle (2% ETOH:98% PEG400) or Compound 181 for 8 days. The hamsters were maintained for 12 days. Blood samples were taken on day 1 (pre-bleed) at the time of surgery, and on days 5, 7, 8 and 12. Fast Protein Liquid Chromatography (FPLC) on tandem Superose 6 columns of pooled hamster serum was performed to obtain cholesterol profiles for the two experimental groups.
Serum cholesterol profiles were determined on pooled sera from each group. Total serum cholesterol and CETP activity were determined on individual serum samples. In hamsters administered Compound 181 chronically, there was a 30% reduction and 26% increase in LDL cholesterol and HDL cholesterol concentrations, respectively, compared to the vehicle group at Day 5. The decrease in LDL and increase in HDL persisted until Day 8 when the Alzet pump was exhausted. […] Therefore, it would appear that for every percent reduction in CETP activity determined by the ex vivo assay, there was a 2-3% decrease in LDL cholesterol or increase in HDL cholesterol concentrations.

[3] = Day 1 (pre-bleed), pooled serum
[4] = Day 12, after pump exhausted at Day 8, pooled serum

- IC50 (CETP [1]): 1500 nM
SMILES: COC(=O)c1c(C(F)F)nc(C(F)(F)F)c(SSc2c(C(F)(F)F)nc(C(F)F)c(C(=O)OC)c2CC(C)C)c1CC(C)C [Compound 181, Dimethyl 5,5′-Dithiobis[2-(difluoromethyl)-4-(2-methylpropyl)-6-(trifluoromethyl)-3-pyridinecarboxylate]]
- HDL cholesterol concentration, % of cholesterol concentration in vehicle group (CETP [2]; [3]): 105%
- LDL cholesterol concentration, % of cholesterol concentration in vehicle group (CETP [2]; [3]): 111%
- increase in HDL cholesterol concentration compared to the vehicle group (CETP [2]; Day 5): 26%
- reduction in LDL cholesterol concentration compared to the vehicle group (CETP [2]; Day 5): 30%
- HDL cholesterol concentration, % of cholesterol concentration in vehicle group (CETP [2]; [4]): 114%
- LDL cholesterol concentration, % of cholesterol concentration in vehicle group (CETP [2]; [4]): 90%
